Reference: patent US7018981B2, “Cyclic motilin receptor antagonists” (Chugai Seiyaku Kabushiki Kaisha, priority 2000, dated 2006)
Where a SMILES comes first, the peptide text is derived from it. Bridges are numbered along the chain shown (N, C = ends). [ ]: non-standard residue; d: D form. NMeTyr(3-tBu) = CN[C@@H](Cc1ccc(O)c(C(C)(C)C)c1)C(=O)O; Tyr(3-tBu) = CC(C)(C)c1cc(C[C@H](N)C(=O)O)ccc1O; Phe(4-F) = N[C@@H](Cc1ccc(F)cc1)C(=O)O; NMeLys(Me) = CNCCCC[C@H](NC)C(=O)O; NMeK = CN[C@@H](CCCCN)C(=O)O; GABA = NCCCC(=O)O; βAla = NCCC(=O)O

Experiments:
motilin receptors = target: T1, motilin receptors (Oryctolagus cuniculus, UniProt G1T803); experiment: Motilin receptor binding test (125I motilin, rabbit duodenum protein solution); conditions: concentration inhibiting 50% of specific binding of 25 pM 125I motilin; rabbit duodenum homogenate, 2 hours at 25° C.
T1 construct: A protein solution was prepared by homogenizing the duodenum isolated from a killed rabbit; from tissue; host or cells: rabbit duodenum, mucosa stripped, homogenate
Description: Motilin receptor binding activities of compounds of the present invention were tested as follows [Vantrappen et al., Regul.
A protein solution was prepared by homogenizing the duodenum isolated from a killed rabbit in 50 mM Tris after stripping the mucosa. […] The difference between the radioactivity of the protein solution incubated alone and the radioactivity of the protein solution incubated with a large excess of motilin (10^−7 M) was recorded as specific binding of motilin to motilin receptors.

[1] = system: motilin-induced contraction of a sample of the longitudinal muscle of the duodenum; experiment: Contraction inhibition test: motilin-induced contraction of rabbit longitudinal duodenal muscle; format: cell-based; conditions: Oryctolagus cuniculus; concentration-dependent contraction induced by motilin; rabbit duodenal specimen in Krebs solution at 28° C.; read-out: Contraction inhibition test pA2 (converted)
Description: The effect of compounds of the present invention on motilin-induced contraction of a sample of the longitudinal muscle of the duodenum extracted from a rabbit was tested as follows.
A duodenal specimen (5×15 mm) extracted from a killed rabbit was suspended in the direction of the longitudinal muscle in an incubator at 28° C. filled with Krebs solution (10 ml organ bath). A mixed gas (95% O2, 5% CO2) was continuously passed through the Krebs solution and the contraction of the duodenal specimen was isotonically recorded (under a load of 1 g) via an isotonic transducer (ME-3407, ME Commercial, Tokyo, Japan). The extent of contraction of the duodenal specimen was expressed as a percentage to the contraction induced by acetylcholine at a concentration of 10^−4 M.
The effect of the compounds synthesized in Examples 1–8 and 10 on the concentration-dependent contraction induced by motilin added into the incubator was determined to calculate pA2 (see “Drug receptors” edited by Takayanagi, published by Nanzando). As a comparative example, the results of the compound of formula (5) are also shown.

T1 sequence (G1T803 1-400): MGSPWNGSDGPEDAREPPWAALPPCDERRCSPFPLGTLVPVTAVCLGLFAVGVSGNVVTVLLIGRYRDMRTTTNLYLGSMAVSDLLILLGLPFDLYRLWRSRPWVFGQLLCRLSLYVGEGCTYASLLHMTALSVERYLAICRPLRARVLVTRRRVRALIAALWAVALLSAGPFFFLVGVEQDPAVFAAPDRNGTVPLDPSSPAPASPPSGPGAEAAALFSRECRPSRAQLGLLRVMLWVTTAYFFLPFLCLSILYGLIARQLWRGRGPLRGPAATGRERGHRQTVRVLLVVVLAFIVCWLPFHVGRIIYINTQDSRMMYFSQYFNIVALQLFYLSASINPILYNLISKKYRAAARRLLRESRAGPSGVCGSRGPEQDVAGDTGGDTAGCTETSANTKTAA

Row | SMILES | IC50 (motilin receptors) [nM] | Kb [1] [nM]
1 | CN1CCCC[C@H](N(C)C(=O)[C@@H](N)Cc2ccc(F)cc2)C(=O)N[C@@H](Cc2ccc(O)c(C(C)(C)C)c2)C(=O)NCCC1=O [Example 5, (2S-(2S,13S))-2-amino-N-(2-(3-tert-butyl-4-hydroxyphenylmethyl)-8-methyl-1,4,8-triaza-3,7,14-trioxocyclotetradec-13-yl)-3-(4-fluorophenyl)-N-methylpropionamide] (H-[Phe(4-F)][NMeLys(Me)][Tyr(3-tBu)][βAla]; lactam 2-C) | 1.4 | 0.126
2 | CN(C(=O)[C@@H](N)Cc1ccc(F)cc1)[C@H]1CCCCNC(=O)CCCNC(=O)[C@H](Cc2ccc(O)c(C(C)(C)C)c2)NC1=O [Example 6, (2S-(2S,14S))-2-amino-N-(2-(3-tert-butyl-4-hydroxyphenylmethyl)-1,4,9-triaza-3,8,15-trioxocyclopentadec-14-yl)-3-(4-fluorophenyl)-N-methylpropionamide] (H-[Phe(4-F)][NMeK][Tyr(3-tBu)][GABA]; lactam 2-C) | 0.87 | 3.16
3 | CC(C)(C)c1cc(C[C@@H]2NC(=O)[C@@H](NC(=O)[C@@H](N)Cc3ccc(F)cc3)CCCCNC(=O)CCNC2=O)ccc1O [Example 7, (2S,14S)-13-(2S-2-amino-3-(4-fluorophenyl)propylamino)-2-(3-tert-butyl-4-hydroxyphenylmethyl)-1,4,8-triaza-3,7,14-trioxocyclotetradecane] (H-[Phe(4-F)]K[Tyr(3-tBu)][βAla]; lactam 2-C) | 4.5 | 10
4 | CC(=O)N1CCCC[C@H](N(C)C(=O)[C@@H](N)Cc2ccc(F)cc2)C(=O)N[C@@H](Cc2ccc(O)c(C(C)(C)C)c2)C(=O)NCCC1 [Example 8, (2S-(2S.13S))-N-(8-acetyl-2-(3-tert-butyl-4-hydroxyphenylmethyl)-N-methyl-1,4,8-triaza-3,14-dioxocyclotetradec-13-yl)-2-amino-3-(4-fluorophenyl)propionamide] | 0.84 | 6.31
5 | CN(C(=O)[C@@H](N)Cc1ccccc1)[C@H]1CCCCNC(=O)CCNC(=O)[C@H](Cc2ccc(O)c(C(C)(C)C)c2)NC1=O [Example 10, (2S-(2S,13S))-2-amino-N-(2-(3-tert-butyl-4-hydroxyphenylmethyl)-1,4,8-triaza-3,7,14-trioxocyclotetradec-13-yl)-3-phenyl-N-methylpropionamide] (H-F[NMeK][Tyr(3-tBu)][βAla]; lactam 2-C) | 2.2 | 12.6

Further lines, with some results ahead:

Row | IC50 (motilin receptors) [nM] | SMILES | Kb [1] [nM]
6 | 1.2 | CN(C(=O)[C@@H](N)Cc1ccc(F)cc1)[C@H]1CCCCNC(=O)CCNC(=O)[C@H](Cc2ccc(O)c(C(C)(C)C)c2)NC1=O [Example 1, (2S-(2S,13S))-2-amino-N-(2-(3-tert-butyl-4-hydroxyphenylmethyl)-1,4,8-triaza-3,7,14-trioxocyclotetradec-13-yl)-3-(4-fluorophenyl)-N-methylpropionamide] (H-[Phe(4-F)][NMeK][Tyr(3-tBu)][βAla]; lactam 2-C) | 1
7 | 1.4 | CN(C(=O)[C@@H](N)Cc1ccc(F)cc1)[C@H]1CCCCNC(=O)CCNC(=O)[C@H](Cc2ccc(O)c(C(C)(C)C)c2)N(C)C1=O [Example 2, (2S-(2S.13S))-2-amino-N-(2-(3-tert-butyl-4-hydroxyphenylmethyl)-1-methyl-1,4,8-triaza-3,7,14-trioxocyclotetradec-13-yl)-3-(4-fluorophenyl)-N-methylpropionamide] (H-[Phe(4-F)][NMeK][NMeTyr(3-tBu)][βAla]; lactam 2-C) | 1.26
8 | 0.52 | CN(C(=O)[C@@H](N)Cc1ccc(F)cc1)[C@H]1CCCCNC(=O)CNC(=O)[C@H](Cc2ccc(O)c(C(C)(C)C)c2)NC1=O [Example 3, (2S-(2S,12S))-2-amino-N-(2-(3-tert-butyl-4-hydroxyphenylmethyl)-1,4,8-triaza-3,7,13-trioxocyclotridec-12-yl)-3-(4-fluorophenyl)-N-methylpropionamide] (H-[Phe(4-F)][NMeK][Tyr(3-tBu)]G; lactam 2-C) | 6.31
9 | 0.78 | CN1CCC(=O)NCCCC[C@H](N(C)C(=O)[C@@H](N)Cc2ccc(F)cc2)C(=O)N[C@@H](Cc2ccc(O)c(C(C)(C)C)c2)C1=O [Example 4, (2S-(2S,13S))-2-amino-N-(2-(3-tert-butyl-4-hydroxyphenylmethyl)-4-methyl-1,4,8-triaza-3,7,14-trioxocyclotetradec-13-yl)-3-(4-fluorophenyl)-N-methylpropionamide] | 1
